The record followed here is ChEMBL document CHEMBL1147477, “(4-Carboxamido)phenylalanine is a surrogate for tyrosine in opioid receptor peptide ligands” (Bioorg Med Chem Lett, 2004).

Holding throughout (format): toxicity, cell-based
Series [1] can be described thus: Lethal dose against HL-60 human peripheral blood cancer cell line. The conditions noted are these: HL-60 cells, read-out: LD50 (the source's name).
The nature of series [2]: Lethal dose against HeLa human cervix cancer cell line. The conditions noted are these: HeLa cells, read-out: LD50 (the source's name).
Series [3] in a line: Lethal dose against NUGC-3 human stomach cancer cell line. The settings on record: NUGC-3 cells, read-out: LD50 (the source's name).
Series [4] can be described thus: Lethal dose against human […] HL- 60 cell line. The settings on record: HL-60 cells, read-out: LD50 (the source's name).

Consider `CC(C)=C1Oc2c(ccc3c2C(O)OC(C)C3)C1=O` (centres undefined), for which the CC50 came out at 39 µM in series [1], 47 µM in series [2] and 49 µM in series [3].

In the case of `CC(C)=C1Oc2c(ccc3cc(C)ncc23)C1=O`, the CC50 in series [4] came out at 39 µM.
